This note sets out measurements from ChEMBL document CHEMBL5137052, “Identification of dihydroquinolizinone derivatives with cyclic ether moieties as new anti-HBV agents” (Eur J Med Chem, 2022).

A value given as a limit tells only on which side of the number the result lay.

Data set [1] deals with Hepatitis B virus. Put plainly: Antiviral activity against HBV infected in human HepG2.2.15 cells assessed as reduction in HBsAg level in cellular supernatant by luminescence based microplate reader analysis. Type of data set: functional, organism-based.
For data set [2], the system named is Hepatitis B virus. Put plainly: Antiviral activity against HBV infected in human HepG2.2.15 cells assessed as reduction in HBeAg level in cellular supernatant by luminescence based microplate reader analysis. Type of data set: functional, organism-based.
Data set [3] has as its system Hepatitis B virus. Put plainly: Antiviral activity against HBV infected in human HepG2.2.15 cells assessed as reduction in intracellular core HBV DNA level incubated for 6 days by qPCR analysis. Type of data set: functional, organism-based. The conditions noted are these: HepG2.2.15, 144 h. A general note: Quantitative PCR measures a nucleic acid by following its amplification.

Data set [4] can be described thus: Neurotoxicity against NGF induced rat PC-12 cells assessed as morphological changes by measuring appearance of round cells with disappearance of neurites at 10 uM incubated for 48 hrs by phase contrast microscopic analysis. Type of data set: toxicity, cell-based. Particulars: pc-12, 48 h.
Data set [5] is described as follows: Neurotoxicity against NGF induced rat PC-12 cells assessed as morphological changes by measuring appearance of shrunken cells with disappearance of neurites at 10 uM incubated for 48 hrs by phase contrast microscopic analysis. Type of data set: toxicity, cell-based. The conditions noted are these: pc-12, 48 h.
Data set [6] in a line: Neurotoxicity against NGF induced rat PC-12 cells assessed as morphological changes by measuring appearance of clear neurites at 10 uM incubated for 48 hrs by phase contrast microscopic analysis. Type of data set: toxicity, cell-based. The conditions noted are these: pc-12, 48 h.
Data set [7] is described as follows: Cytotoxicity against human HepG2.2.15 cells assessed as reduction in cell viability incubated for 6 days by CCK-8 assay. The conditions noted are these: time 6 day. Type of data set: toxicity, cell-based, HepG2 2.2.15. For orientation: Formazan colour is commonly taken as a measure of viable cells.
Data set [8] is described as follows: AUC (0 to t) in BALB/c mouse at 10 mg/kg, po measured up to 24 hrs by HPLC analysis. Type of data set: ADME, organism-based. Also noted: dose 10 mg/kg, time < 24 hrs, route po. Particulars: in vivo.
The nature of data set [9]: MRT (0 to t) in BALB/c mouse at 10 mg/kg, po measured up to 24 hrs by HPLC analysis. The conditions noted are these: in vivo. Type of data set: ADME, organism-based.
Data set [10] is described as follows: Elimination half life in BALB/c mouse at 10 mg/kg, po measured up to 24 hrs by HPLC analysis. Type of data set: ADME, organism-based. Particulars: in vivo, read-out: beta t1/2 (converted).
The nature of data set [11]: Tmax in BALB/c mouse at 10 mg/kg, po measured up to 24 hrs by HPLC analysis. Type of data set: ADME, organism-based. Particulars: in vivo.
Data set [12] can be described thus: Cmax in BALB/c mouse at 10 mg/kg, po measured up to 24 hrs by HPLC analysis. Type of data set: ADME, organism-based. Also noted: dose 10 mg/kg, time < 24 hrs, route po. Particulars: in vivo.

As usually defined, the EC50 is the concentration that produces a half-maximal response. With `COc1cc2c(cc1OCc1ccc3c(c1)OCO3)C[C@@H](C(C)C)n1cc(C(=O)O)c(=O)cc1-2`, the half-maximal effective concentration (EC50) with Hepatitis B virus [1] was 0.8 nM; in the data set with Hepatitis B virus [2], 191 nM; in the data set on Hepatitis B virus [3] it was 1.9 nM. Besides, the Activity result in [4] and in data set [5] was “Toxic” each time.
In the case of `COc1cc2c(cc1OC[C@@H]1CCCO1)C[C@@H](C(C)C)n1cc(C(=O)O)c(=O)cc1-2`, the EC50 amounted to 1.6 nM in the data set with Hepatitis B virus [1], 4.6 nM in the data set on Hepatitis B virus [2] and 0.6 nM in the data set on Hepatitis B virus [3]. In addition, in [6], the Activity result is “Non-Toxic”.
A word on the IC50: it is the concentration needed to halve the response being measured. As a reminder, the CC50 is the concentration that lowers cell viability or growth by half. As a reminder, the AUC(0-t) is exposure summed from dosing to a finite time, without extrapolation to infinity. What is called MRT last is a mean duration of stay, worked out from the concentration-time curve. By Tmax is commonly meant the time at which the peak concentration occurs. Broadly, the Cmax is the maximum level reached in the sampled fluid or tissue. `COCCCOc1cc2c(cc1OC)-c1cc(=O)c(C(=O)O)cn1C(C(C)C)C2` (racemic): the figures for the EC50 in the data set with Hepatitis B virus [1], with Hepatitis B virus [2] and in the data set with Hepatitis B virus [3] were 1 nM, 18.2 nM and 1 nM, respectively. Further, the IC50 with Hepatitis B virus [1] is 5.1 nM; in the data set with Hepatitis B virus [2], 91.2 nM; in the data set on Hepatitis B virus [3], 86.3 nM. The CC50 at 144 h in data set [7] is greater than 50000 nM. This compound also yielded an AUC(0-t) at 24 h in data set [8] of 17.2 µM·h. In data set [9], this compound came in with an MRT last at 24 h of 67.8 min. Also, the half-life in data set [10] is 51 min. In data set [11], the Tmax worked out at 11.4 min. This compound also yielded a Cmax in [12] of 11.6 µM. In addition, the Activity entry in [4] and in data set [5] was “Toxic” in each case.
